Measurements as given in patent US6274715A, “Tricyclic erythromycin derivatives” (priority 1997, dated 2001).
Values after ≈ are worked out from the molar mass of the structure shown.

Legend:
Type in all cases: cell-based
[1] = test system: STAPHYLOCOCCUS AUREUS ATCC 6538P; assay: In vitro antibacterial activity, MIC, BHI agar dilution; details: S. aureus ATCC 6538P, 35-37° C., 20 to 24 hours, unit assumed
[2] = test system: STAPHYLOCOCCUS AUREUS A5177; assay: as above; details: S. aureus A5177, unit assumed
[3] = test system: STAPHYLOCOCCUS AUREUS A-5278; assay: as above; details: S. aureus A-5278, unit assumed
[4] = test system: STAPHYLOCOCCUS AUREUS CMX 642A; assay: as above; details: S. aureus CMX 642A, unit assumed
[5] = test system: STAPHYLOCOCCUS AUREUS NCTC10649M; assay: as above; details: S. aureus NCTC10649M, unit assumed
[6] = test system: STAPHYLOCOCCUS AUREUS CMX 553; assay: as above; details: S. aureus CMX 553, unit assumed
[7] = test system: STAPHYLOCOCCUS AUREUS 1775; assay: as above; details: S. aureus 1775, unit assumed
[8] = test system: STAPHYLOCOCCUS EPIDERMIDIS 3519; details: S. epidermidis 3519; BHI agar; unit assumed
EN[…] ATCC 8043 = assay: In vitro antibacterial activity, MIC, BHI agar dilution; details: E. faecium ATCC 8043, unit assumed
How it was run: (§1)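 MIC was read visually as the lowest drug concentration showing no growth, a slight haze or sparsely isolated colonies relative to a compound-free BHI plate. Plates held serial aqueous dilutions in BHI agar, were spot-inoculated with 1:100 (or 1:10) culture dilutions and incubated 20 to 24 hours at 35-37° C.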

M[…] ATCC 4698 = assay: as above; details: M. luteus ATCC 4698, unit assumed
How it was run: as §1

M[…] ATCC 9341 = assay: as above; details: M. luteus ATCC 9341, unit assumed
How it was run: as §1

STR[…] 508 = assay: as above; details: S. agalactiae CMX 508, unit assumed
How it was run: as §1

[9] = test system: STREPTOCOCCUS BOVIS A-5169; assay: as above; details: S. bovis A-5169, unit assumed
[10] = test system: STREPTOCOCCUS PYOGENES EES61; assay: as above; details: S. pyogenes EES61, unit assumed
[11] = test system: STREPTOCOCCUS PYOGENES 930; assay: as above; details: S. pyogenes 930, unit assumed
[12] = test system: STREPTOCOCCUS PYOGENES PIU 2548; assay: as above; details: S. pyogenes PIU 2548, unit assumed
ESCHERICHIA COLI SS = assay: as above; details: E. coli SS, unit assumed
ESCHERICHIA COLI DC-2 = assay: as above; details: E. coli DC-2, unit assumed
ESCHERICHIA COLI H560 = assay: as above; details: E. coli H560, unit assumed
ESCHERICHIA COLI KNK 437 = details: E. coli KNK 437; BHI agar; unit assumed
[13] = test system: ENTEROBACTER AEROGENES ATCC 13048; assay: In vitro antibacterial activity, MIC, BHI agar dilution; details: E. aerogenes ATCC 13048, unit assumed
[14] = test system: KLEBSIELLA PNEUMONIAE ATCC 8045; assay: as above; details: K. pneumoniae ATCC 8045, unit assumed
[15] = test system: PROVIDENCIA STUARTII CMX 640; details: P. stuartii CMX 640; BHI agar; unit assumed
[16] = test system: PSEUDOMONAS AERUGINOSA BMH10; assay: In vitro antibacterial activity, MIC, BHI agar dilution; details: P. aeruginosa BMH10, unit assumed
[17] = test system: PSEUDOMONAS AERUGINOSA 5007; assay: as above; details: P. aeruginosa 5007, unit assumed
[18] = test system: PSEUDOMONAS AERUGINOSA K799/WT; assay: as above; details: P. aeruginosa K799/WT, unit assumed
[19] = test system: PSEUDOMONAS AERUGINOSA K799/61; assay: as above; details: P. aeruginosa K799/61, unit assumed
PSEUDOMONAS CEPACIA 296I = assay: as above; details: P. cepacia 296I, unit assumed
[20] = test system: ACINETOBACTER CALCOACETICUS CMX 669; assay: as above; details: A. calcoaceticus CMX 669, unit assumed
[21] = test system: PSEUDOMONAS AERUGINOSA DPHD-5263; assay: as above; details: P. aeruginosa DPHD-5263, unit assumed
[22] = test system: PSEUDOMONAS AERUGINOSA DPHD-2862; assay: as above; details: P. aeruginosa DPHD-2862, unit assumed
CANDIDA ALBICANS CCH 442 = assay: as above; details: C. albicans CCH 442, unit assumed
[23] = test system: MYCOBACTERIUM SMEGMATIS ATCC 114; assay: as above; details: M. smegmatis ATCC 114, unit assumed
H. Influenza Dill AMP R = assay: In vitro antibacterial activity against H. Influenza Dill AMP R, MIC; details: separate assay, unit assumed
Protocol: Representative compounds of the present invention were assayed in vitro for antibacterial activity as follows: Twelve petri dishes containing successive aqueous dilutions of the test compound mixed with 10 mL of sterilized Brain Heart Infusion (BHI) agar (Difco 0418-01-5) were prepared. Each plate was inoculated with 1:100 (or 1:10 for slow-growing strains, such as Micrococcus and Streptococcus) dilutions of up to 32 different microorganisms, using a Steers replicator block. The inoculated plates were incubated at 35-37° C. for 20 to 24 hours. In addition, a control plate, using BHI agar containing no test compound, was prepared and incubated at the beginning and end of each test.
After incubation, each plate was visually inspected. The minimum inhibitory concentration (MIC) was defmed as the lowest concentration of drug yielding no growth, a slight haze, or sparsely isolated colonies on the inoculum spot as compared to the growth control.
In a separate assay representative compounds of the invention were assayed in vitro for antibacterial activity against the H. Influenza Dill AMP R strain, according to the protocol described above.

ESCHERICHIA COLI JUHL = details: E. coli JUHL; BHI agar; unit assumed

Row | Structure (SMILES) | MIC [1] | MIC [2] | MIC [3] | MIC [4] | MIC [5] | MIC [6] | MIC [7] | MIC (EN[…] ATCC 8043) | MIC (M[…] ATCC 4698) | MIC (M[…] ATCC 9341) | MIC (STR[…] 508) | MIC [9] | MIC [10] | MIC [11] | MIC [12] | MIC (ESCHERICHIA COLI SS) | MIC (ESCHERICHIA COLI DC-2) | MIC (ESCHERICHIA COLI H560) | MIC (ESCHERICHIA COLI KNK 437) | MIC [14] | also measured
1 | CC[C@H]1OC(=O)[C@H](C)C(=O)[C@H](C)[C@@H](O[C@@H]2O[C@H](C)C[C@H](N(C)C)[C@H]2O)[C@](C)(OC)C[C@@H](C)C2=N[C@@H]3COC[C@@H]3N3C(=O)O[C@@]1(C)[C@H]3[C@H]2C [Example 18] | 0.39 µg/mL (≈ 0.574 µM) | 0.78 µg/mL (≈ 1.15 µM) | > 100 µg/mL | 0.78 µg/mL (≈ 1.15 µM) | 0.78 µg/mL (≈ 1.15 µM) | 0.78 µg/mL (≈ 1.15 µM) | > 100 µg/mL | 0.1 µg/mL (≈ 0.147 µM) | 0.78 µg/mL (≈ 1.15 µM) | 0.05 µg/mL (≈ 0.0735 µM) | 0.05 µg/mL (≈ 0.0735 µM) | 0.05 µg/mL (≈ 0.0735 µM) | 0.05 µg/mL (≈ 0.0735 µM) | > 100 µg/mL | 0.39 µg/mL (≈ 0.574 µM) | 0.78 µg/mL (≈ 1.15 µM) | > 100 µg/mL | > 100 µg/mL | > 100 µg/mL | > 100 µg/mL | MIC [8]: 0.78 µg/mL (≈ 1.15 µM); MIC [13]: > 100 µg/mL; MIC [15]: > 100 µg/mL; MIC [16]: > 100 µg/mL; MIC [17]: > 100 µg/mL; MIC [18]: > 100 µg/mL; MIC [19]: 6.2 µg/mL (≈ 9.12 µM); MIC (PSEUDOMONAS CEPACIA 296I): > 100 µg/mL; MIC [20]: > 100 µg/mL; MIC [21]: > 100 µg/mL; MIC [22]: > 100 µg/mL; MIC (CANDIDA ALBICANS CCH 442): > 100 µg/mL; MIC [23]: 3.1 µg/mL (≈ 4.56 µM); MIC (H. Influenza Dill AMP R): 8 µg/mL (≈ 11.8 µM)
2 | CC[C@H]1OC(=O)[C@H](C)C(=O)[C@H](C)[C@@H](O[C@@H]2O[C@H](C)C[C@H](N(C)C)[C@H]2O)[C@](C)(OC)C[C@@H](C)C2=NC[C@H](COCc3ccccc3)N3C(=O)O[C@@]1(C)[C@H]3[C@H]2C [Example 41] | 0.05 µg/mL (≈ 0.066 µM) | 0.05 µg/mL (≈ 0.066 µM) | > 100 µg/mL | 0.05 µg/mL (≈ 0.066 µM) | 0.05 µg/mL (≈ 0.066 µM) | 0.05 µg/mL (≈ 0.066 µM) | > 100 µg/mL | 0.02 µg/mL (≈ 0.0264 µM) | 0.1 µg/mL (≈ 0.132 µM) | 0.01 µg/mL (≈ 0.0132 µM) | 0.02 µg/mL (≈ 0.0264 µM) | ≤ 0.005 µg/mL | 0.01 µg/mL (≈ 0.0132 µM) | > 100 µg/mL | 0.2 µg/mL (≈ 0.264 µM) | 0.2 µg/mL (≈ 0.264 µM) | 3.1 µg/mL (≈ 4.09 µM) | 1.56 µg/mL (≈ 2.06 µM) | 6.2 µg/mL (≈ 8.18 µM) | 25 µg/mL (≈ 33 µM) | MIC (ESCHERICHIA COLI JUHL): 6.2 µg/mL (≈ 8.18 µM); MIC [15]: 50 µg/mL (≈ 66 µM); MIC [16]: 50 µg/mL (≈ 66 µM); MIC [17]: 50 µg/mL (≈ 66 µM); MIC [19]: 0.2 µg/mL (≈ 0.264 µM); MIC (PSEUDOMONAS CEPACIA 296I): 12.5 µg/mL (≈ 16.5 µM); MIC [21]: 12.5 µg/mL (≈ 16.5 µM); MIC [22]: 50 µg/mL (≈ 66 µM); MIC (CANDIDA ALBICANS CCH 442): > 100 µg/mL; MIC [23]: 0.2 µg/mL (≈ 0.264 µM); MIC (H. Influenza Dill AMP R): 2 µg/mL (≈ 2.64 µM)
